Test results from patent US11535590B2, “Sulfonium salt photoinitiator, preparation method therefor, photocurable composition comprising sulfonium salt photoinitiator, and use thereof” (CHANGZHOU TRONLY NEW ELECTRONIC MATERIALS CO., LTD., priority 2017, dated 2022).
Like-named read-outs stand apart in the source and are kept apart here.

Assay: Evaluation of solubilities of photoinitiators in cationic active diluents
Assay type: physicochemical
Conditions: for Solubility in DOX: diluent DOX: 3,3′-[oxybismethylene]bis[3-ethyl] oxetane; for Solubility in DVE-3: diluent DVE-3: triethyleneglycol divinyl ether; for Solubility in Epoxy resin 6110: diluent Epoxy resin 6110: 3.4-epoxycyclohexylmethyl-3,4-epoxycyclohexyl carboxylate
[1] = diluent POX: 3-ethyl-3-(phenoxymethyl) oxetane

Compound | Solubility in DOX | Solubility in DVE-3 | Solubility in Epoxy resin 6110 | Solubility in POX [1] | Solubility in POX
COC(=O)C(=O)c1ccc(Sc2ccc([S+](c3ccc(Sc4ccc(C(=O)C(=O)OC)cc4)cc3)c3ccc(Sc4ccc(C(=O)C(=O)OC)cc4)cc3)cc2)cc1 [Compound 1] | >10% | >10% | >10% | >10% | 
CCOC(=O)C(=O)c1ccc(Oc2ccc([S+](c3ccccc3)c3ccccc3)cc2)cc1 [Compound 2] | >10% | >10% | >10% | >10% | 
CCOC(=O)C(=O)c1ccc(Oc2ccc([S+](c3ccc(C)cc3)c3ccc(C)cc3)cc2)cc1 [Compound 7] | >10% | >10% | >10% | >10% | 
[F][Sb-]([F])([F])([F])([F])[F].[F][Sb-]([F])([F])([F])([F])[F].c1ccc([S+](c2ccccc2)c2ccc(Sc3ccc([S+](c4ccccc4)c4ccccc4)cc3)cc2)cc1 [UVI6976, bis(4,4′-thioethertriphenylsulfonium) hexafluoroantimonate, reference compound] | <2% | <2% | <2% |  | <2%
phenylthiophenyl diphenylsulfonium hexafluoroantimonate [UVI6992, reference compound] | <2% | <2% | <2% | <2% | 
